# Laboratory results reported in patent publication US4360516A, “Modified D-retro cyclic hexapeptide somatostatin analogs” (Merck & Co., Inc., priority 1981, dated 1982).
# Square brackets hold non-standard residues; d marks the D form. Peptide text beside a SMILES is read from it. dNMeF = CN[C@H](Cc1ccccc1)C(=O)O; dAbu = CC[C@@H](N)C(=O)O
# Tested on: growth hormone release, rat pituitary cells
# Test: in vitro test for the inhibition of growth hormone release in cultured rat pituitary cells
# Format: cell-based
# Conditions: multiples or fractions of the effect of somatostatin (arbitrary value 1); rat pituitary cells after 4 days in culture, 4 hours incubation, graded doses; growth hormone by radioimmunoassay
# Protocol: The instant cyclic hexapeptide analogs ofsomatostatin are tested and compared with the effects of somatostatin in an in vitro test for the inhibition of growth hormone. The test is described as follows:
# "Rat pituitaries" were isolated according to the procedures of Vale and Grant `In vitro Pituitary Hormone Secretion Assay for Hypophysiopic Substances` in Methods in Enzymology. Vol.XXXVII, eds. O'Malley, B. W. and Hardman, J. G. (Academic Press, Inc., New York) pp.5-93 (1975).
# "After 4 days in culture, the cells were washed and incubated for 4 hours in Dulbecco-modified Eagle's medium in the presence or absence of graded doses of each analog of somatostatin. The medium was then collected for subsequent growth hormone determination by a double antibody radioimmunoassay for rat growth hormone."
# The test results for some of the compounds of this invention are recorded below with the results for somatostatin listed first and given the arbitrary value of 1. The results for the instant compounds are given as multiples or fractions of the effect of somatostatin. The first of the instant compounds listed is the compound prepared in Examples 1-5. The compound is written slightly different, however, to conform to the order of the amino acids found in somatostatin.
row,SMILES,Growth Hormone Release Inhibition In Vitro
1,CC[C@H]1NC(=O)[C@@H](Cc2ccc(O)cc2)NC(=O)[C@@H](Cc2c[nH]c3ccccc23)NC(=O)[C@H](CCCCN)NC(=O)[C@@H](C(C)C)NC(=O)[C@@H](Cc2ccccc2)N(C)C1=O [Cyclo-(D-Abu--N--Me--D-Phe--D-Val--L-Lys--D-Trp--D-Tyr)] (cyclo(K[dW][dY][dAbu][dNMeF][dV])),2.4
2,C[C@H](O)[C@H]1NC(=O)[C@@H](Cc2ccccc2)N(C)C(=O)[C@@H](C)NC(=O)[C@@H](Cc2ccccc2)NC(=O)[C@@H](Cc2c[nH]c3ccccc23)NC(=O)[C@H](CCCCN)NC1=O [Cyclo-(D-Ala--N--Me--D-Phe--D-Thr--L-Lys--D-Trp--D-Phe)] (cyclo(K[dW][dF][dA][dNMeF][dT])),0.88
3,C[C@H](O)[C@H]1NC(=O)[C@@H](Cc2ccccc2)N(C)C(=O)[C@@H](C)NC(=O)[C@@H](Cc2ccccc2)NC(=O)[C@H](Cc2c[nH]c3ccccc23)NC(=O)[C@@H](CCCCN)NC1=O [Cyclo-(D-Ala--N--Me--D-Phe--D-Thr--D-Lys--L-Trp--D-Phe)] (cyclo(W[dF][dA][dNMeF][dT][dK])),0.27
4,CC(C)[C@H]1NC(=O)[C@@H](Cc2ccccc2)N(C)C(=O)[C@@H](C)NC(=O)[C@@H](Cc2ccccc2)NC(=O)[C@@H](Cc2c[nH]c3ccccc23)NC(=O)[C@H](CCCCN)NC1=O [Cyclo-(D-Ala--N--Me--D-Phe--D-Val--L-Lys--D-Trp--D-Phe)] (cyclo(K[dW][dF][dA][dNMeF][dV])),0.3
